# Reference: ChEMBL document CHEMBL1201862, “PubChem BioAssay data set” (2004)
# Active and inactive are the calls of the source.
# How the values were obtained:
# [1] = target: T1, Voltage-gated N-type calcium channel alpha-1B subunit/Amyloid beta A4 precursor protein-binding family A member 1 (Homo sapiens, UniProt Q00975+Q02410); test: disruptors of Mint-PDZ/N-type channel peptide interaction – biochemical, HTRF, SAR follow-up (AID 2489); type: functional
# [2] = target: T1, Voltage-gated N-type calcium channel alpha-1B subunit/Amyloid beta A4 precursor protein-binding family A member 1; test: disruptors of Mint-PDZ/N-type channel peptide interaction – biochemical, HTRF, set 2, SAR follow-up (AID 434980); type: functional
# Vero [3] = test: mammalian cell viability reduction – secondary assay, cytotoxicity control for West Nile virus antiviral project, dose response (AID 1650); type: functional; details: Chlorocebus sabaeus
# [4] = cAMP pathway inhibition in counterscreen cell line – TR-FRET cAMP detection, counter-screen for MC4R biased antagonist project, dose response (AID 602305); type: functional, cell-based;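 note: U2OS cells stimulated with forskolin near its EC80 as the cAMP inducer; potency is for inhibition of forskolin-stimulated cAMP signaling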
# Melanocortin receptor 4 = Melanocortin receptor 4 (Homo sapiens, UniProt P32245); test: inhibitors of MC4R cAMP signaling – cell-based, TR-FRET, biased antagonists, dose response (AID 602298); type: functional;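 note: antagonist potency against agonist-stimulated cAMP production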
# [5] = viability of uninfected HEp-2 cells – cell-based, HTS, cytotoxicity control for RSV inhibitor project, dose response (AID 2410); type: functional; details: human respiratory syncytial virus
# cells [6] = test: cells
# Cytochrome P450 3A4 = Cytochrome P450 3A4 (Homo sapiens, UniProt P08684); details: Potency;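 note: confirmatory qHTS run detecting inhibitors and substrates of CYP3A4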
# [7] = target: T2, Alkaline phosphatase, tissue-nonspecific isozyme (Homo sapiens, UniProt P05186); test: potency against alkaline phosphatase TNAP – biochemical, luminescent, dose response, SAR follow-up (AID 1056)
# T2 sequence (P05186 whole entry): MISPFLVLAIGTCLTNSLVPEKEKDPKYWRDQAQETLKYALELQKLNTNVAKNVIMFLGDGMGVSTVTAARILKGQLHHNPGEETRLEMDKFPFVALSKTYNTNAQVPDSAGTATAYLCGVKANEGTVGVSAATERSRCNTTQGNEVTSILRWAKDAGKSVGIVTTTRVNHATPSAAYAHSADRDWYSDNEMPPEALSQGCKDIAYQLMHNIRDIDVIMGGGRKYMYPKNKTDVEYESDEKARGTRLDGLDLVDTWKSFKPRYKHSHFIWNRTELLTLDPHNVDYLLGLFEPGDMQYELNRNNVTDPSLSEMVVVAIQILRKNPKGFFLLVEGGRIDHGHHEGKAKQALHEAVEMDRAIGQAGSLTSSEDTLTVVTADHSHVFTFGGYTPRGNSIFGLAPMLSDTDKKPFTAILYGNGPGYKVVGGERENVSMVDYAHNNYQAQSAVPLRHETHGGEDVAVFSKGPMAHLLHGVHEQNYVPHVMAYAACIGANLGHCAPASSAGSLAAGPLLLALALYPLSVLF
# [8] = target: Alkaline phosphatase, placental type (Homo sapiens, UniProt P05187); test: human placental alkaline phosphatase inhibition – biochemical, luminescence, confirmation (AID 1512); type: functional
# Chain of Alkaline phosphatase, placental type (P05187 whole entry): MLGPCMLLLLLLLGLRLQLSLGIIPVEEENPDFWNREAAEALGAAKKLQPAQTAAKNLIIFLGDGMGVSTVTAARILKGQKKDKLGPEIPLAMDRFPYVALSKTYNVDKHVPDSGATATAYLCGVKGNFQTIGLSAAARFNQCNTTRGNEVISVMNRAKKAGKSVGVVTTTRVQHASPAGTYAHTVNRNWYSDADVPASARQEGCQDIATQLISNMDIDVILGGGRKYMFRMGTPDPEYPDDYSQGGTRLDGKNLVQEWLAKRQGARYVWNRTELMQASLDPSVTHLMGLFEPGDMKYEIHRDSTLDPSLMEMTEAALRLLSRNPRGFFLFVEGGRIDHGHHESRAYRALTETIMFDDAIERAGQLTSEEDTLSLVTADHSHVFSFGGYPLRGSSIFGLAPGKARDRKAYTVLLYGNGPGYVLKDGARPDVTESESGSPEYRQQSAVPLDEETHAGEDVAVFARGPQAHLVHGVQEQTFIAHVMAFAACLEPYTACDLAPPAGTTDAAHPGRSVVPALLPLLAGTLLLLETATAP
# [9] = target: Glyceraldehyde-3-phosphate dehydrogenase (Homo sapiens, UniProt P04406)
# Estrogen receptor beta [10] = target: T3, Estrogen receptor beta (Homo sapiens, UniProt Q92731); test: blockers of SRC-3 recruitment to ERβ – biochemical, ELISA, streptavidin-HRP readout, orthogonal assay, confirmation (AID 1060)
# T3 sequence (Q92731 whole entry): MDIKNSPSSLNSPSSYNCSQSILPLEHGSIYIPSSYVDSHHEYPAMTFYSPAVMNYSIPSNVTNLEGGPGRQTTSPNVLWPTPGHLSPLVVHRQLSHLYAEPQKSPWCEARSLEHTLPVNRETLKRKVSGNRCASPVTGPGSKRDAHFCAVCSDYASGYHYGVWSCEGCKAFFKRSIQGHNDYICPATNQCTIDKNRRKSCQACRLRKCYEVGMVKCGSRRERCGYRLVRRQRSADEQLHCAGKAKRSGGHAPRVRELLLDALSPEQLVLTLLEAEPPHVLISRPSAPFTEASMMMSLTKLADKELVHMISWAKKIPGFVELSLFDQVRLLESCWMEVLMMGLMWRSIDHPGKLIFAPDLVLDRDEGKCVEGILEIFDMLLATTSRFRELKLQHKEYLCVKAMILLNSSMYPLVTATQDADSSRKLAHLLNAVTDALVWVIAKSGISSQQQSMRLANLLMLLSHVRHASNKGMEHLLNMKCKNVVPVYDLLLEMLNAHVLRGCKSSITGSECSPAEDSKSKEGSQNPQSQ
# Estrogen receptor beta [11] = target: T3, Estrogen receptor beta
# Vero [12] = test: Vero cell viability after compound exposure – synthesized analogs, set II, cytotoxicity control for West Nile virus antiviral project, SAR follow-up (AID 2402); type: functional; details: Chlorocebus sabaeus
# [13] = A Cell Based Assay for the Identification of Probe candidate Compounds with Anti- Venezuelan Equine Encephalitis virus. [Related pubchem assays: 2409, 2419, 1621, 2238, 2405, 2024, 2065, 2402, 2414, 1635, 1650, 2244 ]; type: functional
# HEK293 [14] = test: NOD2 signaling inhibitors in MDP-stimulated cells, cell-based, uHTS, luminescence (AID 2001); type: functional; details: Homo sapiens
# HEK293 [15] = test: cells; type: functional, cell-based; details: Homo sapiens
# HEK293 [16] = test: cells; type: functional, cell-based; details: Homo sapiens; remark: listed apart in the source
# HEK293 [17] = test: cells; type: functional, cell-based; details: Homo sapiens; remark: listed apart in the source
# [18] = target: Nucleotide-binding oligomerization domain-containing protein 2 (Homo sapiens, UniProt Q9HC29); test: inhibition of NOD2-driven NF-kB reporter – cell-based, luminescence, uHTS, HEK293 (AID 1566); type: functional
# HEK293 [19] = test: inhibition of NOD1-driven NF-kB reporter – cell-based, luminescence, uHTS, primary screen (AID 1578); type: functional; details: Homo sapiens
# Cytochrome P450 2C9 = Cytochrome P450 2C9 (Homo sapiens, UniProt P11712); details: Potency
# [20] = target: T4, Intestinal-type alkaline phosphatase (Homo sapiens, UniProt P09923); test: human intestinal alkaline phosphatase activators, dose response, biochemical, luminescence, uHTS hits (AID 463120); type: functional
# [21] = target: T4, Intestinal-type alkaline phosphatase; test: Dose Response confirmation of uHTS hits from a small molecule inhibitors of human intestinal alkaline phosphatase via a luminescent assay. [Related pubchem assays (depositor defined):AID2544, AID2574]; type: functional
# [22] = target: 5-hydroxytryptamine receptor 1E (Homo sapiens, UniProt P28566); test: Counterscreen assay for S1P3 antagonists: Dose response cell-based high throughput screening assay to identify antagonists of the 5-Hydroxytryptamine Receptor Subtype 1E (5HT1E). [Related pubchem assays: 1429, 485 ]; type: functional
# [23] = target: Sphingosine 1-phosphate receptor 3 (Homo sapiens, UniProt Q99500); test: Dose response cell-based high throughput screening assay for antagonists of the Sphingosine 1-Phosphate Receptor 3 (S1P3). [Related pubchem assays: 1429, 485 ]; type: functional
# Chain of Sphingosine 1-phosphate receptor 3 (Q99500 whole entry, the tested form may be a part): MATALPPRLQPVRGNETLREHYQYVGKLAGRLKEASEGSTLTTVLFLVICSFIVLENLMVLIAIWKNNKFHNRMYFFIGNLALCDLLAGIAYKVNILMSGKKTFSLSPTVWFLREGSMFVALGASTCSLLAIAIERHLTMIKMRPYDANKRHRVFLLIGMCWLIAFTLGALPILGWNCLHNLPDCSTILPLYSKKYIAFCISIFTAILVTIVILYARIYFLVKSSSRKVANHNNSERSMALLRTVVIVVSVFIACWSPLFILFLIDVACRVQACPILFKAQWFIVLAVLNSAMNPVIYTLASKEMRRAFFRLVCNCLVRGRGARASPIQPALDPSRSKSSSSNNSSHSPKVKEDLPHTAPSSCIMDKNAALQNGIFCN
# [24] = target: T5, Type-1 angiotensin II receptor (Homo sapiens, UniProt P30556); test: agonist activity at AGTR1 – cell-based, uHTS hits, selectivity assay for APJ receptor agonist project, dose response (AID 488865); type: functional;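 note: beta-arrestin recruitment to AT1 measured by enzyme fragment complementation luminescence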
# T5 sequence (P30556 whole entry): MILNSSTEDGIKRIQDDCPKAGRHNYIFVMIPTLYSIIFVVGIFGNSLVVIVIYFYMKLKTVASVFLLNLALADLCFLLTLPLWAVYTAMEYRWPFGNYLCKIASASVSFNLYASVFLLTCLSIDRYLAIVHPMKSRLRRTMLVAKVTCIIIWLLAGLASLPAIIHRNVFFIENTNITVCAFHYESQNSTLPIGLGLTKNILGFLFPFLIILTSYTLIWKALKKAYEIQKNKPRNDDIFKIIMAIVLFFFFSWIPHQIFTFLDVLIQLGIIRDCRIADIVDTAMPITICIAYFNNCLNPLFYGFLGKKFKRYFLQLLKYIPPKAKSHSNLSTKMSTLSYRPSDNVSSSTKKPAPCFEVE
# [25] = HepG2 cell cytotoxicity, dose response, cytotoxicity control for non-replicating M. tuberculosis project (AID 489018); type: functional; details: Mycobacterium tuberculosis
# cells [26] = type: functional
# [27] = THP-1 cell cytotoxicity, dose response, cytotoxicity control for non-replicating M. tuberculosis project (AID 489025); type: functional
# [28] = target: T1, Voltage-gated N-type calcium channel alpha-1B subunit/Amyloid beta A4 precursor protein-binding family A member 1; type: protein assay
# [29] = target: T1, Voltage-gated N-type calcium channel alpha-1B subunit/Amyloid beta A4 precursor protein-binding family A member 1; type: protein assay; remark: listed apart in the source
# [30] = target: DNA dC->dU-editing enzyme APOBEC-3G (Homo sapiens, UniProt Q9HC16); test: Dose Response confirmation of small molecule APOBEC3G DNA Deaminase Inhibitors via a fluorescence-based single-stranded DNA deaminase assay. [Related pubchem assays (depositor defined):AID493012, AID493028]; type: functional
# [31] = target: Glucose-6-phosphate 1-dehydrogenase (Homo sapiens, UniProt P11413); test: inhibition of Homo sapiens G6PD, dose series – biochemical, fluorescence, selectivity assay for P. falciparum G6PD inhibitor project, dose response (AID 504792); type: functional
# [32] = target: DNA dC->dU-editing enzyme APOBEC-3A (Homo sapiens, UniProt P31941); test: A3A deaminase inhibition for selectivity – biochemical, dose response (AID 504722); type: functional
# Chain of DNA dC->dU-editing enzyme APOBEC-3A (P31941 whole entry): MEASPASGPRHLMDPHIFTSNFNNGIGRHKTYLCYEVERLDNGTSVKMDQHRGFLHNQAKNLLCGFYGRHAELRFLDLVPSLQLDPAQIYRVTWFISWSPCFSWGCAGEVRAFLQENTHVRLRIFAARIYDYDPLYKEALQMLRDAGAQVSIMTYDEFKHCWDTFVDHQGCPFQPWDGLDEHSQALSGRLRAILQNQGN
# [33] = target: Epstein-Barr nuclear antigen 1 (Epstein-Barr virus (strain B95-8) (HHV-4) (Human herpesvirus 4), UniProt P03211); test: inhibition of EBV nuclear antigen 1 DNA binding – biochemical, fluorescence polarization, 1536-well, dose response (AID 2381); design: species or system human gammaherpesvirus 4;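 note: fluorescence polarization of a Cy5 DNA probe bound by EBNA-1 protein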
# [34] = target: Lytic switch protein BZLF1 (Epstein-Barr virus (strain B95-8) (HHV-4) (Human herpesvirus 4), UniProt P03206); test: inhibition of BZLF1 ZTA DNA binding – biochemical, fluorescence polarization, Epstein-Barr virus, 1536-well, counter-screen for EBNA-1 inhibitor project, dose response (AID 2377); design: species or system human gammaherpesvirus 4;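 note: fluorescence polarization of Cy5-labelled ZRE DNA probe bound by purified Zta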
# Chain of Lytic switch protein BZLF1 (P03206 whole entry): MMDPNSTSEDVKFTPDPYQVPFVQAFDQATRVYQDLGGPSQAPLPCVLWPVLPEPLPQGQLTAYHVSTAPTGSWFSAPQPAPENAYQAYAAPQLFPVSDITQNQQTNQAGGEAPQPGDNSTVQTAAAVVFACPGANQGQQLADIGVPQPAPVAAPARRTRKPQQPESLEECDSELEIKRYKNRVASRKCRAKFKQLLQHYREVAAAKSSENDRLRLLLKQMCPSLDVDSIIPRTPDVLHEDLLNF
# [35] = target: T6, Ubiquitin-conjugating enzyme E2 N (Homo sapiens, UniProt P61088); type: functional;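 note: Dose-response confirmation in a TR-FRET assay detecting UBC13-driven polyubiquitin chain formation, inhibition measured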
# T6 sequence (P61088 whole entry): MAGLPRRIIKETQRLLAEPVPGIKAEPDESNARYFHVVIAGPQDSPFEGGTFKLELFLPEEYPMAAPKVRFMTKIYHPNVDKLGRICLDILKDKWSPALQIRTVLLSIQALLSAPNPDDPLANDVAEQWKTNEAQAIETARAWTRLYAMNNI
# Vero [36] = test: cells; type: functional, cell-based; details: Chlorocebus sabaeus
# T1 sequence (Q00975 whole entry): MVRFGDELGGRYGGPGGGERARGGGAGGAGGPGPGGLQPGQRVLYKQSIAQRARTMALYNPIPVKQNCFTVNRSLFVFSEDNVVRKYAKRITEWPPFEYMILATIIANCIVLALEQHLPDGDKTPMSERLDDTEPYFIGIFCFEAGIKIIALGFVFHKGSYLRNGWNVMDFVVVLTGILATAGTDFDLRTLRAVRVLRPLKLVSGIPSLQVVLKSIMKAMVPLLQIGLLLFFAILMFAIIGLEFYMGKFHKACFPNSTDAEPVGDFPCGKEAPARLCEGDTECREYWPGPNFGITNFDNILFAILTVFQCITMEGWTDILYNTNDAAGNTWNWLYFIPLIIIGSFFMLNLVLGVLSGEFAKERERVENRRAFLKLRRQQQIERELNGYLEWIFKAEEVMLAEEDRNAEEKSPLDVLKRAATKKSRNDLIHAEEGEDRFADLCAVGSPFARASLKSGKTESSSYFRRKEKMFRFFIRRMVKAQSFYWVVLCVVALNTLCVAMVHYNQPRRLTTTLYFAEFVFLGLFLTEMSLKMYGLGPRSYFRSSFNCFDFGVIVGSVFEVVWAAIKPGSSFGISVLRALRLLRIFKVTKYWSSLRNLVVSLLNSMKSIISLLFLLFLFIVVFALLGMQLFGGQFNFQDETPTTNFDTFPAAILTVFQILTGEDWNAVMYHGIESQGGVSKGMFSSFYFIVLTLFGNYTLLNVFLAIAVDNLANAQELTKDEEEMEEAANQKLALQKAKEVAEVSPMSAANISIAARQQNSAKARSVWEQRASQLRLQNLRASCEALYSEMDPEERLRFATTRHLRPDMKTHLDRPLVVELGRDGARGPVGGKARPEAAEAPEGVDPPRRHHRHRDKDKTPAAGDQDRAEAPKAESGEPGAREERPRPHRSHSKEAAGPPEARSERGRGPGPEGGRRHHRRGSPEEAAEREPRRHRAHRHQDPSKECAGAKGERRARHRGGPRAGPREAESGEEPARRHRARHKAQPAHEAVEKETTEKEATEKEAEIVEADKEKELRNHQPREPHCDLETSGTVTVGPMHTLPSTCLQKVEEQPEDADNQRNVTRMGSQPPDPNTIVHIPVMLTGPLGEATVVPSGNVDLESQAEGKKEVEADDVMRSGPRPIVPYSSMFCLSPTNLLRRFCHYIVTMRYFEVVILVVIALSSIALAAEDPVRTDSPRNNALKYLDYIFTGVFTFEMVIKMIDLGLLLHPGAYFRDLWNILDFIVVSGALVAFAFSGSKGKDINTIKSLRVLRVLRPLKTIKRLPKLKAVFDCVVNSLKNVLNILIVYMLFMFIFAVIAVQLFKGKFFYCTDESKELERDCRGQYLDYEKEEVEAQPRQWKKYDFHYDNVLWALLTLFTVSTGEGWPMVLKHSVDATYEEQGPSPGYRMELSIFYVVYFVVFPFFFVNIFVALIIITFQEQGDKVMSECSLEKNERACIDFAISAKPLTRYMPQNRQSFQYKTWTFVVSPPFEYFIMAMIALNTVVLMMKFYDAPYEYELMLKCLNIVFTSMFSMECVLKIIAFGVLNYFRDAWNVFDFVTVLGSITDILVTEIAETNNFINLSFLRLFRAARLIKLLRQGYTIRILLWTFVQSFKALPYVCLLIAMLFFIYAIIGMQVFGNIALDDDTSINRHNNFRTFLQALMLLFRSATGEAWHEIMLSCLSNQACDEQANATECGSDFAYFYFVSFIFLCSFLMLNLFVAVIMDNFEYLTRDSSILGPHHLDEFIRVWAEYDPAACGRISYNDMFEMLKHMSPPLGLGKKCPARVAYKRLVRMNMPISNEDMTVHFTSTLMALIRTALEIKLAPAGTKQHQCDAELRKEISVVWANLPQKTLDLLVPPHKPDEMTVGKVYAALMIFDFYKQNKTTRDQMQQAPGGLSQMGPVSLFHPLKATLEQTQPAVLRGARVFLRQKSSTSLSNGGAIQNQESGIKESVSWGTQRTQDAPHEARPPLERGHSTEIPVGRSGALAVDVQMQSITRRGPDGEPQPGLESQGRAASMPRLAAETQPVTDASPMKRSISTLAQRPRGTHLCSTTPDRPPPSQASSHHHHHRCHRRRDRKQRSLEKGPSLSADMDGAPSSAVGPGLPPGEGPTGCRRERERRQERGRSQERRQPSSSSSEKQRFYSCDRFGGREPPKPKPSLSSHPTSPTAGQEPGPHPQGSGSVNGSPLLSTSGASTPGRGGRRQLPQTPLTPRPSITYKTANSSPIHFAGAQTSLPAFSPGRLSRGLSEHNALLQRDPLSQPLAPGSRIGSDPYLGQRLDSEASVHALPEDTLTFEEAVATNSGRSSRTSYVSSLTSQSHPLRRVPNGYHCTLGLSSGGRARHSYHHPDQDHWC
# T1 sequence (Q02410 whole entry): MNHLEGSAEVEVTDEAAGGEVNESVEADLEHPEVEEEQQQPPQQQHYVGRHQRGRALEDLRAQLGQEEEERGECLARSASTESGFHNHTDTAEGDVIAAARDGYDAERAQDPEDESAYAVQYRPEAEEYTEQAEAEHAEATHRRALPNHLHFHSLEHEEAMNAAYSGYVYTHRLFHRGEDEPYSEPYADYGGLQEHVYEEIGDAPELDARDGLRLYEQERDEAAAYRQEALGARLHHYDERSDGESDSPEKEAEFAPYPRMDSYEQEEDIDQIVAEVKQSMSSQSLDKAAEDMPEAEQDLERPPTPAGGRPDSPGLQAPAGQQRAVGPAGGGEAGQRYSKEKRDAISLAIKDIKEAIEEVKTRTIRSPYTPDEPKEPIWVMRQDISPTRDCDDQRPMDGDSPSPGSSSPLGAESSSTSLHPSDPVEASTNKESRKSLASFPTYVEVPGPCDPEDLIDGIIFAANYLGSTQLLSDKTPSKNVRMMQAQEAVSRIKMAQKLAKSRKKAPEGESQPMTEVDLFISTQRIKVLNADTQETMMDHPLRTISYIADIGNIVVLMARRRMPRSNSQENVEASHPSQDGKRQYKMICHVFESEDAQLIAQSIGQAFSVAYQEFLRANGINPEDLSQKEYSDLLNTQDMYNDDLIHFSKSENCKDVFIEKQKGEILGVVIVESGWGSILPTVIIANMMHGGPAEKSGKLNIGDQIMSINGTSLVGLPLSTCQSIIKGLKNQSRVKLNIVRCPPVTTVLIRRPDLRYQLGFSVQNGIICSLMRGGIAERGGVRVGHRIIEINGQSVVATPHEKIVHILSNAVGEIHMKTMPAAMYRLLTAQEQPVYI
smiles,measurement,setting,value
Cc1ccc(N2C(=O)C3C(C2=O)C2(C)C=CC3(C)O2)cc1 (stereo not given),IC50,[1],11.5 µM (active)
same,IC50,[2],> 56.8 µM (inactive)
Cc1ccc(Nc2nc(N/N=C/c3c[nH]c4ccccc34)nc(N3CCOCC3)n2)cc1,CC50,Vero [3],12.9 µM (active)
same,IC50,[4],> 64.6 µM (inactive)
same,IC50,Melanocortin receptor 4,> 64.6 µM (inactive)
same,CC50,[5],18.2 µM (active)
same,IC50,cells [6],20.5 µM (active)
Cc1nc(N2CCOCC2)c2nc(-c3ccccc3)n(C(C)CN(C)C)c2n1 (stereo not given),AC50,Cytochrome P450 3A4,20 µM (inconclusive)
COc1ccccc1-c1nnc(SCC(=O)Nc2ccc(C)c(C)c2)[nH]1,IC50,[7],> 100 µM (inactive)
same,IC50,[8],> 100 µM (inactive)
same,IC50,[9],> 100 µM (not active)
N=c1c(-c2nc3ccccc3[nH]2)cc(C(=O)c2cccs2)nn1-c1ccc(Cl)cc1,IC50,Estrogen receptor beta [10],> 50 µM (not active)
same,IC50,Estrogen receptor beta [11],> 50 µM (not active)
COc1ccc(-c2csc(N(CCCBr)C(=O)c3ccccc3Cl)n2)cc1,CC50,Vero [12],78.2 µM (active)
same,IC50,[13],> 66.6 µM (active)
COc1cc(/C=C/C(=O)c2ccc(C)cc2)ccc1OCC#N,IC50,HEK293 [14],5.83 µM (active)
same,IC50,HEK293 [15],> 20 µM (inactive)
same,IC50,HEK293 [16],4.56 µM (active)
same,IC50,HEK293 [17],> 20 µM (inactive)
same,EC50,[18],> 20 µM (inactive)
same,EC50,HEK293 [19],4.61 µM (active)
CC(=O)c1ccc(OC2C=CC(c3ccc(Cl)cc3)OC2CO)cc1 (stereo not given),AC50,Cytochrome P450 2C9,5.01 µM (inconclusive)
CCc1nnc(NC(=O)CSc2nnc(C)c(=O)n2N)s1,EC50,[20],> 100 µM (inactive)
same,IC50,[21],> 100 µM (inactive)
CCc1ccccc1NC1c2ccccc2C(=O)N1Cc1ccco1 (stereo not given),IC50,[22],15.6 µM (not active)
same,IC50,[23],> 50 µM (not active)
CC(C)[C@]1(NC(=O)[C@H]2C=C3c4cccc5[nH]cc(c45)C[C@H]3N(C)C2)O[C@@]2(O)[C@H]3CCCN3C(=O)[C@H](Cc3ccccc3)N2C1=O,AC50,Cytochrome P450 2C9,7.94 µM (inconclusive)
Cc1ccc(NC(=O)C(C)c2ccc([N+](=O)[O-])cc2)cc1Cl (stereo not given),IC50,[22],13.4 µM (not active)
same,IC50,[23],11.3 µM (not active)
COc1ccc2nc(O)c(C(c3nnnn3CC3CCCO3)N3CCc4ccccc4C3)cc2c1 (stereo not given),EC50,[24],> 100 µM (inactive)
CC(C)C[C@H]1CN=C(Nc2ccccc2)N1CCCC1CCCCC1,CC50,[25],> 20 µM (active)
same,IC50,cells [26],40.1 µM (active)
same,CC50,[27],16.2 µM (active)
O=C1NC(=O)N(c2ccccc2)C(=O)/C1=C/c1ccc(Sc2ccccc2)o1,IC50,[28],34.4 µM (active)
same,IC50,[29],35.9 µM (active)
Nn1c(SCC(=O)Nc2cccnc2Cl)nnc1-c1ccccc1,IC50,[30],13.3 µM (active)
same,IC50,[31],> 80 µM (inactive)
same,IC50,[32],> 100 µM (inactive)
CNC(=O)[C@@H]1C[C@H]1[C@@H](NC(=O)CNC(=O)OCc1ccccc1)c1ccccc1,AC50,Cytochrome P450 3A4,15.8 µM (inconclusive)
c1coc(-c2nnc3sc(Cc4cccs4)nn23)c1,IC50,Estrogen receptor beta [10],4.41 µM (not active)
same,IC50,Estrogen receptor beta [11],< 1.56 µM (active)
CCN(CC)S(=O)(=O)c1cccc(-c2n[nH]c(=S)n2C)c1,IC50,[30],4.94 µM (active)
same,IC50,[32],> 100 µM (inactive)
Nc1c(C(=O)Nc2ccc3c(c2)OCCO3)nnn1Cc1cccc(Cl)c1,IC50,[33],9.25 µM (active)
same,IC50,[34],> 111 µM (not active)
NS(=O)(=O)c1ccc(NC(=O)COC(=O)/C(=C/c2cccs2)c2cccs2)cc1,IC50,[33],17.1 µM (not active)
same,IC50,[34],> 111 µM (not active)
COc1ccc(OCC(=O)NNC(=O)c2ccccn2)cc1,IC50,cells [26],9.61 µM (active)
same,IC50,[8],> 100 µM (inactive)
same,IC50,[35],> 20 µM (inactive)
COc1cccc2cc(C(=O)Nc3ccc(S(=O)(=O)NCC4CCCO4)cc3)c(=O)oc12 (stereo not given),IC50,[28],> 50 µM (inactive)
same,IC50,[29],> 56.8 µM (not active)
O=C(CCNC(=O)c1ccc(Cl)cc1)NC1CCCc2ccccc21 (stereo not given),CC50,[5],40.2 µM (active)
same,IC50,Vero [36],19.8 µM (active)
same,IC50,cells [6],13.4 µM (active)
